Measured values reported in ChEMBL document CHEMBL3596163, “Discovery of imidazo[1,5-a]pyridines and -pyrimidines as potent and selective RORc inverse agonists” (Bioorg Med Chem Lett, 2015).
pEC50, pIC50: −log10 of the molar value.

How the values were obtained:
[1] = Lipophilicity, log D of the compound at pH 7.4; format: physicochemical; settings: buffer
[2] = molecular target: T1, Nuclear receptor ROR-gamma (Homo sapiens, UniProt P51449); assay: Inverse agonist activity at N-terminal 6xHis-tagged human RORc ligand binding domain (241 to 486) expressed in bacterial expression system assessed as inhibition of SRC1 co-activator peptide recruitment after 3 hrs by TR-FRET analysis; format: functional
T1 sequence (P51449 whole entry): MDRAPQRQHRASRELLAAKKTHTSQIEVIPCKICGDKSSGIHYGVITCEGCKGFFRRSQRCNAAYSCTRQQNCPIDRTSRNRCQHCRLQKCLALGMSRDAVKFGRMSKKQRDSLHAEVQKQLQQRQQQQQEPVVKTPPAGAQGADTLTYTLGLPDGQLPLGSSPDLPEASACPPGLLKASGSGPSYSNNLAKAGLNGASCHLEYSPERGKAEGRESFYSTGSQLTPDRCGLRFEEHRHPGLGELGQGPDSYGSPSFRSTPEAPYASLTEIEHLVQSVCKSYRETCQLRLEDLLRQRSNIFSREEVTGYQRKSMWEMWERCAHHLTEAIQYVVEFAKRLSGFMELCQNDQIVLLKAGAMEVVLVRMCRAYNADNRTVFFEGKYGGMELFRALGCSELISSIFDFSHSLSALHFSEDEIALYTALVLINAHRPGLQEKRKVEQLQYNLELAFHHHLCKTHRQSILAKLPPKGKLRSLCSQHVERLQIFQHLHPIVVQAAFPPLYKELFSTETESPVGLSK

[3] = molecular target: T2, Peroxisome proliferator-activated receptor gamma (Homo sapiens, UniProt P37231); assay: Displacement of fluormone PPARgamma green from GST-tagged human PPARgamma-LBD after 2 hrs by fluorescence polarization assay
T2 sequence (P37231 whole entry): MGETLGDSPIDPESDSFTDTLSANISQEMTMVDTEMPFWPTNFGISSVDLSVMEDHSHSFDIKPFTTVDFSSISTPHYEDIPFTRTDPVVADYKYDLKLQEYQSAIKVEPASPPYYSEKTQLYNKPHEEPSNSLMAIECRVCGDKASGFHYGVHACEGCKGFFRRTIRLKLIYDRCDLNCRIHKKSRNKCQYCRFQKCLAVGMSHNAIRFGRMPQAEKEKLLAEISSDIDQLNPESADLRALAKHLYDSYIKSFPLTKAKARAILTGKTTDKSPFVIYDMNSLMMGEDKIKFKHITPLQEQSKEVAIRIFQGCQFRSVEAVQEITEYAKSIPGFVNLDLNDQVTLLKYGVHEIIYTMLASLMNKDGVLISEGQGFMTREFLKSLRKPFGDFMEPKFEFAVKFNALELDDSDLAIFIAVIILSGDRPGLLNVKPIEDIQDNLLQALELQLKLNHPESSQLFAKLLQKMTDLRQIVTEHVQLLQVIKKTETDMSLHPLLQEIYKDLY

Structure (SMILES) | logD [1] | pEC50 [2] | pIC50 [3]
O=C(c1c(Cl)cccc1C(F)(F)F)c1nc([C@H]2CC[C@@H](C(=O)O)CC2)c2ccccn12 | 1.8 | 5.37 | –
O=C(c1c(Cl)cccc1C(F)(F)F)c1nc(N2CCC(C(=O)O)CC2)c2ccccn12 | 0.4 | 6.27 | < 5.00
O=C(O)c1ccc(-c2nc(C(=O)c3c(Cl)cccc3C(F)(F)F)n3ccncc23)cc1 | 0.7 | 5.59 | –
COc1cccc(C(F)(F)F)c1C(=O)c1nc(-c2ccc(C(=O)O)cc2F)c2n1CCCC2 | – | 6.17 | 5.04
O=C(O)c1ccc(-c2nn(C(=O)c3c(Cl)cccc3C(F)(F)F)c3ccccc23)cc1 | 2.9 | – | –
O=C(c1c(Cl)cccc1C(F)(F)F)c1nc(N2CCC(O)(C(=O)O)CC2)c2ccccn12 | – | 5.17 | –
O=C(O)c1ccc(-c2nc(C(=O)c3ccccc3C(F)(F)F)n3c2CCCC3)c(F)c1 | 1.4 | 6.08 | 5.25
O=C(O)c1ccc(-c2cn3c(n2)C(c2c(Cl)cccc2C(F)(F)F)OCC3)cc1 (centres undefined) | – | < 5.00 | –
O=C(O)c1ccc(-n2nc(C(=O)c3c(Cl)cccc3C(F)(F)F)c3c2CCCC3)cc1 | -0.3 | < 5.00 | –

Second part, the compound after the results:

logD [1] | pEC50 [2] | pIC50 [3] | Structure (SMILES)
0.3 | 7.08 | 5.38 | O=C(O)c1ccc(-c2nc(C(=O)c3c(Cl)cccc3C(F)(F)F)n3cccnc23)cc1
1.5 | 7.11 | 5.96 | O=C(O)c1ccc(-c2nc(C(=O)c3c(Cl)cccc3Cl)n3c2CCCC3)c(F)c1
1.5 | 7.00 | 5.74 | O=C(c1c(Cl)cccc1C(F)(F)F)c1nc(C2=CCC(C(=O)O)CC2)c2ccccn12 (centres undefined)
1.3 | 6.40 | – | O=C(c1c(Cl)cccc1C(F)(F)F)c1nc([C@H]2CC[C@H](C(=O)O)CC2)c2ccccn12
0.8 | 7.24 | 5.68 | O=C(O)c1ccc(-c2nc(C(=O)c3c(Cl)cccc3C(F)(F)F)n3c2CCCC3)cc1
1.2 | 6.72 | 5.54 | O=C(O)c1ccc(-c2nc(C(=O)c3c(F)cccc3Cl)n3c2CCCC3)c(F)c1
0.7 | 6.66 | < 5.00 | N#Cc1cccc(C(F)(F)F)c1C(=O)c1nc(-c2ccc(C(=O)O)cc2F)c2n1CCCC2
0.3 | 6.36 | < 5.00 | O=C(c1c(Cl)cccc1C(F)(F)F)c1nc(N2CC[C@H](C(=O)O)[C@@H](O)C2)c2ccccn12 (stereo in doubt)
0.4 | 7.01 | < 5.00 | O=C(c1c(Cl)cccc1C(F)(F)F)c1nc(N2CC[C@@H](C(=O)O)[C@H](O)C2)c2ccccn12 (stereo in doubt)
0.8 | 6.62 | 5.26 | COc1cccc(Cl)c1C(=O)c1nc(-c2ccc(C(=O)O)cc2F)c2n1CCCC2
0.7 | 6.60 | 5.11 | N#Cc1cccc(Cl)c1C(=O)c1nc(-c2ccc(C(=O)O)cc2F)c2n1CCCC2
